{"source": "paper PMC12487887", "about": "“Global conformations of Pichia pastoris complex I are distinguished by the binding of a unique interdomain bridging subunit” (Science Advances, 2025)", "molecules": {"B1": {"name": "NUQM, supernumerary interdomain bridge subunit of Pichia pastoris complex I (natural protein)", "chain": "ALATIRNDLKLNFRFKADVLEKNVIRSILAETKNLEIDNKDKDLDEFKLYDLLSKMIKQRQDSAAIYLKEGSPDRFRQTGWNELREVDYITKYLEALPVASAEEIEAKVEPIVQSVLEEEGELKSPKEIFSRIPWKVVNQDWQASEGAVKNTVLRLYNLYKTDA"}}, "key": {"[1]": {"molecular_target": "T1, NDUFA9 subunit of Pp-CI (Komagataella pastoris, UniProt E1UWA9)", "T1 construct": "gene nuem; supernumerary subunit within native 44-subunit mitochondrial complex I in cMSP26 nanodiscs", "T1 sequence (E1UWA9 36-384)": "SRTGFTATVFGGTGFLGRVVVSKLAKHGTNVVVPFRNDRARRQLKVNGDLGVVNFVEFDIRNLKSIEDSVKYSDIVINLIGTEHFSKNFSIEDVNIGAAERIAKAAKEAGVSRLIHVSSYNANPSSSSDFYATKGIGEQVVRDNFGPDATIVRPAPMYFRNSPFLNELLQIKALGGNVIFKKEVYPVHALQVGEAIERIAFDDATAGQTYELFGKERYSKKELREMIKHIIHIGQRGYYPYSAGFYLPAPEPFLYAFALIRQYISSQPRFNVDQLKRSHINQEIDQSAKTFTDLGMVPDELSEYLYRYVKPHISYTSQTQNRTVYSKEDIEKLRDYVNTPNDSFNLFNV", "test": "cryo-EM structure", "assay_type": "binding", "settings": "state 1, closed, 2.8 Å"}, "[2]": {"molecular_target": "T2, Pp-CI (flavin site; NDUFV1) (Komagataella pastoris, UniProt E1UWA7)", "T2 construct": "gene nubm; native mitochondrial complex I, 44 subunits, purified in LMNG, in cMSP26 nanodiscs or proteoliposomes; with NADH-ubiquinone oxidoreductase 24 kDa subunit, mitochondrial; NADH-ubiquinone oxidoreductase 75 kDa subunit, mitochondrial", "T2 sequence (E1UWA7 17-473)": "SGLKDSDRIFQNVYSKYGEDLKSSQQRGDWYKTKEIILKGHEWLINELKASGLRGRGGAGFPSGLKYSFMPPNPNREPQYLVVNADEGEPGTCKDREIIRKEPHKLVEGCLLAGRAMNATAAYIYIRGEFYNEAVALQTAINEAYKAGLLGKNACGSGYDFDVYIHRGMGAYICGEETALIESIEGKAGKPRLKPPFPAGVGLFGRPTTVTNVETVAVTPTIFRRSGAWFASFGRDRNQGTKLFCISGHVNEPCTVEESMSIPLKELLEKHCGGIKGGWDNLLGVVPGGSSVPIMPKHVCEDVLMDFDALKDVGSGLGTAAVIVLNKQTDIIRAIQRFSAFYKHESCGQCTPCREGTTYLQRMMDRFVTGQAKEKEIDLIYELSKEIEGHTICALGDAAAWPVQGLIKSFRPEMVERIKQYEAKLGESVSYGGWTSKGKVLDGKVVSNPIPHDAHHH", "test": "NADH:APAD+ oxidoreduction in proteoliposomes", "assay_type": "biochemical", "settings": "500 μM APAD+, 100 μM NADH; pH 7.5, 32°C"}, "[3]": {"molecular_target": "T3, Pp-CI (Q10-binding site) (Komagataella pastoris, UniProt E1UWA8+E1UWB5+E1UWC2)", "T3 construct": "gene nucm; native mitochondrial complex I, 44 subunits, purified in LMNG, in cMSP26 nanodiscs or proteoliposomes; with NADH-ubiquinone oxidoreductase 51 kDa subunit, mitochondrial; NADH-ubiquinone oxidoreductase 24 kDa subunit, mitochondrial", "test": "NADH:O2 oxidoreduction with AOX, nanodiscs", "assay_type": "biochemical", "settings": "200 μM NADH; Q10 in bilayer; pH 7.5, 32°C"}, "[4]": {"molecular_target": "T2, Pp-CI (flavin site; NDUFV1)", "test": "NADH:APAD+ and NADH:O2 oxidoreduction, absorbance […]-380 nm", "assay_type": "biochemical", "settings": "100 μM NADH with 500 μM APAD+ or 200 μM NADH with Q10/AOX; pH 7.5, 32°C"}, "[5]": {"molecular_target": "T2, Pp-CI (flavin site; NDUFV1)", "test": "cryo-EM structure", "assay_type": "binding", "settings": "state 1, closed, 2.8 Å"}, "[6]": {"molecular_target": "Pichia pastoris complex I (NADH:ubiquinone oxidoreductase), the 43 subunits other than NUQM, with the flavoprotein subcomplex (Pichia pastoris (endogenous in strain X-33))", "test": "cryo-EM structure; Pp-CI reconstituted into proteoliposomes (Pp-CI-PLs), 10 mM Mops pH 7.5, 50 mM KCl; Talos Arctica 200 kV; focused 3D classification on NUQM and on the flavoprotein; NUQM-bound map 4.7 A"}, "[7]": {"molecular_target": "Pichia pastoris complex I (NADH:ubiquinone oxidoreductase), the 43 subunits other than NUQM, with the flavoprotein subcomplex (Pichia pastoris (endogenous in strain X-33))", "test": "cryo-EM structure; Pp-CI purified in LMNG and reconstituted into cMSP26 nanodiscs with DOPC:DOPE:CDL and Q10, 10 mM Mops pH 7.5, 50 mM KCl; Titan Krios 300 kV; particles classified into four states (state 1 closed with NUQM 2.80 A; state 3 open without NUQM 3.34 A)"}}, "data": [{"molecule": "NC(=O)C1=CN([C@@H]2O[C@H](COP(=O)(O)OP(=O)(O)OC[C@H]3O[C@@H](n4cnc5c(N)ncnc54)[C@H](OP(=O)(O)O)[C@@H]3O)[C@@H](O)[C@H]2O)C=CC1", "note": "[NADPH]", "values": [{"measurement": "cryo-EM structure", "setting": "[1]", "value": "bound in NDUFA9"}]}, {"molecule": "CC(=O)c1ccc[n+]([C@@H]2O[C@H](COP(=O)(O)OP(=O)(O)OC[C@H]3O[C@@H](n4cnc5c(N)ncnc54)[C@H](O)[C@@H]3O)[C@@H](O)[C@H]2O)c1", "note": "[APAD^+]", "values": [{"measurement": "NADH:APAD+ oxidoreduction in proteoliposomes", "setting": "[2]", "value": "the consistent rates of the flavin-localized NADH:APAD^+ reaction"}]}, {"molecule": "COC1=C(OC)C(=O)C(C/C=C(\\C)CC/C=C(\\C)CC/C=C(\\C)CC/C=C(\\C)CC/C=C(\\C)CC/C=C(\\C)CC/C=C(\\C)CC/C=C(\\C)CC/C=C(\\C)CCC=C(C)C)=C(C)C1=O", "note": "[Q10]", "values": [{"measurement": "NADH:O2 oxidoreduction with AOX, nanodiscs", "setting": "[3]", "value": "confirming the rapid redox-cycling turnover of the Q10 contained in the ND bilayer"}]}, {"molecule": "NC(=O)C1=CN([C@@H]2O[C@H](COP(=O)(O)OP(=O)(O)OC[C@H]3O[C@@H](n4cnc5c(N)ncnc54)[C@H](O)[C@@H]3O)[C@@H](O)[C@H]2O)C=CC1", "note": "[NADH]", "values": [{"measurement": "NADH:APAD+ and NADH:O2 oxidoreduction, absorbance 340-380 nm", "setting": "[4]", "value": "the consistent rates of the flavin-localized NADH:APAD^+ reaction"}]}, {"molecule": "Cc1cc2nc3c(=O)[nH]c(=O)nc-3n(C[C@H](O)[C@H](O)[C@H](O)COP(=O)(O)O)c2cc1C", "note": "[FMN]", "values": [{"measurement": "cryo-EM structure", "setting": "[5]", "value": "canonical CI subunits that contain the FMN in the active site for NADH oxidation"}]}, {"molecule": "B1", "values": [{"measurement": "percent of outward-facing, flavoprotein-bound particles with NUQM bound", "setting": "[6]", "value": 77, "unit": "%"}, {"measurement": "percent of flavoprotein-containing particles with NUQM bound", "setting": "[7]", "value": 68.1, "unit": "%"}]}]}
